SMILES strings stand for the structures. Numbered stars: 1 amine (or outer) side, 2 acyl side, 3 side chain; on linkers, the order of the positions; unused ones are H or OH. Square brackets hold non-standard residues; d marks the D form. Peptide text beside a SMILES is read from it. * marks the point of attachment. X2 = CON(C)C(=O)OCCCC[C@@H](C)[C@@H](O)[C@@H](C(=O)[*:2])N(C)[*:1]; X10 = C[C@H](CCOC(=O)NC1CC1)[C@@H](O)[C@@H](C(=O)[*:2])N(C)[*:1]; X5 = C[C@H](CCCCOC(=O)N(C)C)[C@@H](O)[C@@H](C(=O)[*:2])N(C)[*:1]; X9 = C[C@H](CCCCN=[N+]=[N-])[C@@H](O)[C@@H](C(=O)[*:2])N(C)[*:1]; X7 = CCOC(=O)NCCCC[C@@H](C)[C@@H](O)[C@@H](C(=O)[*:2])N(C)[*:1]; X8 = CCOC(=O)OCCCC[C@@H](C)[C@@H](O)[C@@H](C(=O)[*:2])N(C)[*:1]; X1 = COC(=O)NCCCC[C@@H](C)[C@@H](O)[C@@H](C(=O)[*:2])N(C)[*:1]; X4 = COC(=O)OCCCC[C@@H](C)[C@@H](O)[C@@H](C(=O)[*:2])N(C)[*:1]; X3 = CC(=O)NCCCC[C@@H](C)[C@@H](O)[C@@H](C(=O)[*:2])N(C)[*:1]; NMe(dihydroBmt) = CCCC[C@@H](C)[C@@H](O)[C@H](NC)C(=O)O; X6 = C[C@H](CCCCN)[C@@H](O)[C@@H](C(=O)[*:2])N(C)[*:1]; Butyl(4-morpholino) = C(CC*)CN1CCOCC1; NMeT = CN[C@H](C(=O)O)[C@@H](C)O; NMeL = CN[C@@H](CC(C)C)C(=O)O; NMeV = CN[C@H](C(=O)O)C(C)C; dNMeA = CN[C@H](C)C(=O)O; Abu = CC[C@H](N)C(=O)O

The test deals with HCV 1a genotype replicon. Nature of the test: microbe, parasite or virus in culture. The following applies: Hepatitis C virus; HCV genotype 1a replicon, luciferase assay, 72 hours; read-out: EC50 (Ia) Genotype-1a Replicon EC50. The class given is cell-based. On the technique in general: A replicon is a self-replicating genome or part of one, used to study replication in cells.

By EC50 is commonly meant the midpoint of the concentration-response curve. For `CC[C@@H]1NC(=O)[C@H]([C@H](O)[C@H](C)CCCCN=[N+]=[N-])N(C)C(=O)[C@H](C(C)C)N(C)C(=O)[C@H](CC(C)C)N(C)C(=O)[C@H](CC(C)C)N(C)C(=O)[C@@H](C)NC(=O)[C@H](C)NC(=O)[C@H](CC(C)C)N(C)C(=O)[C@H](C(C)C)NC(=O)[C@H]([C@@H](C)OCCCCN2CCOCC2)N(C)C(=O)[C@@H](C)N(C)C1=O` [Example 68] (cyclo(A[dA][NMeL][NMeL][NMeV][X9][Abu][dNMeA][NMeT](Butyl(4-morpholino))V[NMeL])), the EC50 lay in the range of 10 to 100 nM. For `CC[C@@H]1NC(=O)[C@H]([C@H](O)[C@H](C)CCCCOC(=O)OC)N(C)C(=O)[C@H](C(C)C)N(C)C(=O)[C@H](CC(C)C)N(C)C(=O)[C@H](CC(C)C)N(C)C(=O)[C@@H](C)NC(=O)[C@H](C)NC(=O)[C@H](CC(C)C)N(C)C(=O)[C@H](C(C)C)NC(=O)[C@H]([C@@H](C)OCCCCN2CCOCC2)N(C)C(=O)[C@@H](C)N(C)C1=O` [Example 63] (cyclo(A[dA][NMeL][NMeL][NMeV][X4][Abu][dNMeA][NMeT](Butyl(4-morpholino))V[NMeL])), the 50% effective concentration (EC50) was in the range of 10 to 100 nM. On to `CCOC(=O)NCCCC[C@@H](C)[C@@H](O)[C@H]1C(=O)N[C@@H](CC)C(=O)N(C)[C@H](C)C(=O)N(C)[C@@H]([C@@H](C)OCCCCN2CCOCC2)C(=O)N[C@@H](C(C)C)C(=O)N(C)[C@@H](CC(C)C)C(=O)N[C@@H](C)C(=O)N[C@H](C)C(=O)N(C)[C@@H](CC(C)C)C(=O)N(C)[C@@H](CC(C)C)C(=O)N(C)[C@@H](C(C)C)C(=O)N1C` [Example 72] (cyclo(A[dA][NMeL][NMeL][NMeV][X7][Abu][dNMeA][NMeT](Butyl(4-morpholino))V[NMeL])), for which the concentration for a half-maximal effect (EC50) was in the range of 10 to 100 nM. As for `CCCC[C@@H](C)[C@@H](O)[C@H]1C(=O)N[C@@H](CC)C(=O)N(C)[C@H](C)C(=O)N(C)[C@@H]([C@@H](C)OCCCCN2CCOCC2)C(=O)N[C@@H](C(C)C)C(=O)N(C)[C@@H](CC(C)C)C(=O)N[C@@H](C)C(=O)N[C@H](C)C(=O)N(C)[C@@H](CC(C)C)C(=O)N(C)[C@@H](CC(C)C)C(=O)N(C)[C@@H](C(C)C)C(=O)N1C` [Example 7] (cyclo(A[dA][NMeL][NMeL][NMeV][NMe(dihydroBmt)][Abu][dNMeA][NMeT](Butyl(4-morpholino))V[NMeL])), the EC50 is 10 to 100 nM. The result for `CC[C@@H]1NC(=O)[C@H]([C@H](O)[C@H](C)CCOC(=O)NC2CC2)N(C)C(=O)[C@H](C(C)C)N(C)C(=O)[C@H](CC(C)C)N(C)C(=O)[C@H](CC(C)C)N(C)C(=O)[C@@H](C)NC(=O)[C@H](C)NC(=O)[C@H](CC(C)C)N(C)C(=O)[C@H](C(C)C)NC(=O)[C@H]([C@@H](C)OCCCCN2CCOCC2)N(C)C(=O)[C@@H](C)N(C)C1=O` [Example 6] (cyclo(A[dA][NMeL][NMeL][NMeV][X10][Abu][dNMeA][NMeT](Butyl(4-morpholino))V[NMeL])) reads over 1000 nM; that for `CC[C@@H]1NC(=O)[C@H]([C@H](O)[C@H](C)CCCCOC(=O)N(C)OC)N(C)C(=O)[C@H](C(C)C)N(C)C(=O)[C@H](CC(C)C)N(C)C(=O)[C@H](CC(C)C)N(C)C(=O)[C@@H](C)NC(=O)[C@H](C)NC(=O)[C@H](CC(C)C)N(C)C(=O)[C@H](C(C)C)NC(=O)[C@H]([C@@H](C)OCCCCN2CCOCC2)N(C)C(=O)[C@@H](C)N(C)C1=O` [Example 66] (cyclo(A[dA][NMeL][NMeL][NMeV][X2][Abu][dNMeA][NMeT](Butyl(4-morpholino))V[NMeL])), 10 to 100 nM. Regarding `CCOC(=O)OCCCC[C@@H](C)[C@@H](O)[C@H]1C(=O)N[C@@H](CC)C(=O)N(C)[C@H](C)C(=O)N(C)[C@@H]([C@@H](C)OCCCCN2CCOCC2)C(=O)N[C@@H](C(C)C)C(=O)N(C)[C@@H](CC(C)C)C(=O)N[C@@H](C)C(=O)N[C@H](C)C(=O)N(C)[C@@H](CC(C)C)C(=O)N(C)[C@@H](CC(C)C)C(=O)N(C)[C@@H](C(C)C)C(=O)N1C` [Example 64] (cyclo(A[dA][NMeL][NMeL][NMeV][X8][Abu][dNMeA][NMeT](Butyl(4-morpholino))V[NMeL])), the EC50 lay in the range of 10 to 100 nM. As to `CC[C@@H]1NC(=O)[C@H]([C@H](O)[C@H](C)CCCCNC(C)=O)N(C)C(=O)[C@H](C(C)C)N(C)C(=O)[C@H](CC(C)C)N(C)C(=O)[C@H](CC(C)C)N(C)C(=O)[C@@H](C)NC(=O)[C@H](C)NC(=O)[C@H](CC(C)C)N(C)C(=O)[C@H](C(C)C)NC(=O)[C@H]([C@@H](C)OCCCCN2CCOCC2)N(C)C(=O)[C@@H](C)N(C)C1=O` [Example 70] (cyclo(A[dA][NMeL][NMeL][NMeV][X3][Abu][dNMeA][NMeT](Butyl(4-morpholino))V[NMeL])), the EC50 was in the range of 10 to 100 nM. The result for `CC[C@@H]1NC(=O)[C@H]([C@H](O)[C@H](C)CCCCOC(=O)N(C)C)N(C)C(=O)[C@H](C(C)C)N(C)C(=O)[C@H](CC(C)C)N(C)C(=O)[C@H](CC(C)C)N(C)C(=O)[C@@H](C)NC(=O)[C@H](C)NC(=O)[C@H](CC(C)C)N(C)C(=O)[C@H](C(C)C)NC(=O)[C@H]([C@@H](C)OCCCCN2CCOCC2)N(C)C(=O)[C@@H](C)N(C)C1=O` [Example 65] (cyclo(A[dA][NMeL][NMeL][NMeV][X5][Abu][dNMeA][NMeT](Butyl(4-morpholino))V[NMeL])) reads 10 to 100 nM; that for `CC[C@@H]1NC(=O)[C@H]([C@H](O)[C@H](C)CCCCNC(=O)OC)N(C)C(=O)[C@H](C(C)C)N(C)C(=O)[C@H](CC(C)C)N(C)C(=O)[C@H](CC(C)C)N(C)C(=O)[C@@H](C)NC(=O)[C@H](C)NC(=O)[C@H](CC(C)C)N(C)C(=O)[C@H](C(C)C)NC(=O)[C@H]([C@@H](C)OCCCCN2CCOCC2)N(C)C(=O)[C@@H](C)N(C)C1=O` [Example 71] (cyclo(A[dA][NMeL][NMeL][NMeV][X1][Abu][dNMeA][NMeT](Butyl(4-morpholino))V[NMeL])), 10 to 100 nM; that for `CC[C@@H]1NC(=O)[C@H]([C@H](O)[C@H](C)CCCCN)N(C)C(=O)[C@H](C(C)C)N(C)C(=O)[C@H](CC(C)C)N(C)C(=O)[C@H](CC(C)C)N(C)C(=O)[C@@H](C)NC(=O)[C@H](C)NC(=O)[C@H](CC(C)C)N(C)C(=O)[C@H](C(C)C)NC(=O)[C@H]([C@@H](C)OCCCCN2CCOCC2)N(C)C(=O)[C@@H](C)N(C)C1=O` [Example 69] (cyclo(A[dA][NMeL][NMeL][NMeV][X6][Abu][dNMeA][NMeT](Butyl(4-morpholino))V[NMeL])), 100 to 1000 nM.

(Values after patent US9616099B2, “Cyclosporin analogues for preventing or treating hepatitis C infection” (Enanta Pharmaceuticals, Inc., priority 2013, dated 2017).)
